# Measurements from PMC6199744, “Development of Chemical Proteomics for the Folateome and Analysis of the Kinetoplastid Folateome” (ACS Infectious Diseases, 2018).
# Read-outs that look alike come from different tables or passages of the source.
# Key:
# Format in all cases: binding
# [1] = molecular target: T1, HeLa cell extract proteins (Homo sapiens, UniProt O95197)
# T1 construct: endogenous in cells; host or cells: HeLa cell extract
# T1 sequence (O95197 1-1032): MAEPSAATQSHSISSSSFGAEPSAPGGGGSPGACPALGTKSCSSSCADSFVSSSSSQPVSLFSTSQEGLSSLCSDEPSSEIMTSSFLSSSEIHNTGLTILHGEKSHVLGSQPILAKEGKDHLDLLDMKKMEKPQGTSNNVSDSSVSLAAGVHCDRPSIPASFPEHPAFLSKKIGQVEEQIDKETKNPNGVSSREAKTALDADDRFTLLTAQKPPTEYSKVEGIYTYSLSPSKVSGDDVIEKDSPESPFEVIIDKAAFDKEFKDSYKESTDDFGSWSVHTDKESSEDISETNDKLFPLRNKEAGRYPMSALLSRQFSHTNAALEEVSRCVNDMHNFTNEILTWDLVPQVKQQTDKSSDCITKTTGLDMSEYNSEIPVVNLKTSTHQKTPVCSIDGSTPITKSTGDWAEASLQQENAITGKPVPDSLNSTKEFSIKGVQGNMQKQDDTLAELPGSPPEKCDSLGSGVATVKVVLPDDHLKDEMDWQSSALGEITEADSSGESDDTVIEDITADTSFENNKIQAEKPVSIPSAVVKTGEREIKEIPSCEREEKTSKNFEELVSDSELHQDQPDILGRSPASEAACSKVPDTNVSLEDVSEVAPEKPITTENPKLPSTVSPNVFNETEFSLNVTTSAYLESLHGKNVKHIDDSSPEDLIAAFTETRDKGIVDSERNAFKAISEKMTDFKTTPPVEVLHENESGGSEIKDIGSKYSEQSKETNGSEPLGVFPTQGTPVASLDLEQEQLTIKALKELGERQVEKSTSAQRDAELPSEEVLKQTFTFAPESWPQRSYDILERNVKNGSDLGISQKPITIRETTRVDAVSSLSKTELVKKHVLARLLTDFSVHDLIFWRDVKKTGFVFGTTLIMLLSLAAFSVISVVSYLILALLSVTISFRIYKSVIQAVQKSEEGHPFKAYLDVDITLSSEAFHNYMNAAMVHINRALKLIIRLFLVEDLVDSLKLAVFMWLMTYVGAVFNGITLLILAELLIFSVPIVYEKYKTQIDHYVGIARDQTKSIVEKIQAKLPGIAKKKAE
# [2] = molecular target: T2, HeLa cell extract proteins (Homo sapiens, UniProt O95831)
# T2 construct: endogenous in cells; host or cells: HeLa cell extract
# T2 sequence (O95831 102-613): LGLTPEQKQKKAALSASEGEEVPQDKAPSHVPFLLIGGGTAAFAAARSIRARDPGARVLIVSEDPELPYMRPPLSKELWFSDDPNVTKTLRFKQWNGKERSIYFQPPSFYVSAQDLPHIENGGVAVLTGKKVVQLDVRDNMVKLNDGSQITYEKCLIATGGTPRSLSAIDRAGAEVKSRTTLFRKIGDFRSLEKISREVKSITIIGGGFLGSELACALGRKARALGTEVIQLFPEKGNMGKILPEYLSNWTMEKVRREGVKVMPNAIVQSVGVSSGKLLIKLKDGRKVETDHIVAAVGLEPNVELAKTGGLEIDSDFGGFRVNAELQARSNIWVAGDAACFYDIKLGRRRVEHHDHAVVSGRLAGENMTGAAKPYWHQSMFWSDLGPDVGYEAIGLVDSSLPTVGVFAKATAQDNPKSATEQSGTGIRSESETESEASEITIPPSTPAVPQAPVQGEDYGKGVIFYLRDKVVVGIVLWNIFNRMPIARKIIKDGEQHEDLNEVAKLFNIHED
# [3] = molecular target: T3, HeLa cell extract proteins (Homo sapiens, UniProt P15559)
# T3 construct: endogenous in cells; host or cells: HeLa cell extract
# T3 sequence (P15559 whole entry): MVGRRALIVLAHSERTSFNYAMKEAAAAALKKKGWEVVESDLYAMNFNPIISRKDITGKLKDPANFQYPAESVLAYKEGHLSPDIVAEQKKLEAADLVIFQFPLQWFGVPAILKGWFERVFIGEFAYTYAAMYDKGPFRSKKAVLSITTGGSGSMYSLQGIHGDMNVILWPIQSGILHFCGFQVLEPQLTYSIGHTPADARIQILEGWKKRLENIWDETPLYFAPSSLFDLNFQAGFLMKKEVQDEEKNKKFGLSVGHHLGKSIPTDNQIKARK
# [4] = molecular target: T4, HeLa cell extract proteins (Homo sapiens, UniProt P49748)
# T4 construct: endogenous in cells; host or cells: HeLa cell extract
# T4 sequence (P49748 41-655): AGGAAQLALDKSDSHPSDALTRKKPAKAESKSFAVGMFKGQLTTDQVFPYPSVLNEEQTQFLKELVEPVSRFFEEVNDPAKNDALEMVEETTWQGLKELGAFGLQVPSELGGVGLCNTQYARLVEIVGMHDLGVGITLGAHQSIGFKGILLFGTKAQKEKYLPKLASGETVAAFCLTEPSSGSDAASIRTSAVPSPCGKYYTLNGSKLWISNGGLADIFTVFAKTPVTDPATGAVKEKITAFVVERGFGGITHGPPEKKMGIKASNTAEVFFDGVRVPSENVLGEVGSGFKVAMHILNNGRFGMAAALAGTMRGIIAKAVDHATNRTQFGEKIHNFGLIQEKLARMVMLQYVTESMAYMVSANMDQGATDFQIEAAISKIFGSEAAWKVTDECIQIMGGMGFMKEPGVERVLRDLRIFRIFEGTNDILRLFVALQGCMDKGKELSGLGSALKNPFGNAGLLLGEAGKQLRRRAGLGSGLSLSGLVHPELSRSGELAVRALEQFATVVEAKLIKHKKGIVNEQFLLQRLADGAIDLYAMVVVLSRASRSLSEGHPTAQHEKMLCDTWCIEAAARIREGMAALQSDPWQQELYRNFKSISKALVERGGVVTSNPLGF
# [5] = molecular target: T5, HeLa cell extract proteins (Homo sapiens, UniProt Q13162)
# T5 construct: endogenous in cells; host or cells: HeLa cell extract
# T5 sequence (Q13162 38-271): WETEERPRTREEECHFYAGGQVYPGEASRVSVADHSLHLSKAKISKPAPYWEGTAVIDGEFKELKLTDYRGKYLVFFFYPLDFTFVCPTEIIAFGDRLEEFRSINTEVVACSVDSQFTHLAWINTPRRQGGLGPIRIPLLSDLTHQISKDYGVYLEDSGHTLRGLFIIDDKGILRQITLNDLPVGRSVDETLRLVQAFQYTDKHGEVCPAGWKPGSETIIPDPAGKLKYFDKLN
# [6] = molecular target: T6, HeLa cell extract proteins (Homo sapiens, UniProt Q99460)
# T6 construct: endogenous in cells; host or cells: HeLa cell extract
# T6 sequence (Q99460 whole entry): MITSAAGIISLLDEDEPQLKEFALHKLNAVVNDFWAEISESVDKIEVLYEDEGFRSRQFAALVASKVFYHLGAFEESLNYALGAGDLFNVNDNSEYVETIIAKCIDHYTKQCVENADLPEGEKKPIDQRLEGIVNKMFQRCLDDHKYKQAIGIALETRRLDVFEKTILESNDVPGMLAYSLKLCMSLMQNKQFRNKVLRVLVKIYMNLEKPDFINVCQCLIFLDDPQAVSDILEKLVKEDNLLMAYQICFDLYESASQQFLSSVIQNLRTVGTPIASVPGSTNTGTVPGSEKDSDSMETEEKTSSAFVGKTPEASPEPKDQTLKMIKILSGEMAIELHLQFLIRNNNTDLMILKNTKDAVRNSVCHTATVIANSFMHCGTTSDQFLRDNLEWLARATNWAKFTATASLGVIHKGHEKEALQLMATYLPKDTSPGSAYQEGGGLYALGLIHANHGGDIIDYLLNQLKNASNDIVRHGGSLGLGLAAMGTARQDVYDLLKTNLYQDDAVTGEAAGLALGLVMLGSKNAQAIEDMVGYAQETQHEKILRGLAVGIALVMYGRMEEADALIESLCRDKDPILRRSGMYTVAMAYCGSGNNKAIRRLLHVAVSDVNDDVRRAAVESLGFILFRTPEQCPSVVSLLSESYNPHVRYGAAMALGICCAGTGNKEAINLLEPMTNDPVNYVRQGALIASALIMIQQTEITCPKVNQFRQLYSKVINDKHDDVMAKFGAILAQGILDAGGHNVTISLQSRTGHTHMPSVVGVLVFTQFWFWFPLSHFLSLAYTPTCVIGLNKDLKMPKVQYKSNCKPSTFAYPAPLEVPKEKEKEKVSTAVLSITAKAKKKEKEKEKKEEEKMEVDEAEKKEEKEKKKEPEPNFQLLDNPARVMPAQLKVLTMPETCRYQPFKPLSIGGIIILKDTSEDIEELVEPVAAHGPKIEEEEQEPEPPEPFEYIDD
# [7] = molecular target: T7, HeLa cell extract proteins (Homo sapiens, UniProt Q9ULX6)
# T7 construct: endogenous in cells; host or cells: HeLa cell extract
# T7 sequence (Q9ULX6 1-646): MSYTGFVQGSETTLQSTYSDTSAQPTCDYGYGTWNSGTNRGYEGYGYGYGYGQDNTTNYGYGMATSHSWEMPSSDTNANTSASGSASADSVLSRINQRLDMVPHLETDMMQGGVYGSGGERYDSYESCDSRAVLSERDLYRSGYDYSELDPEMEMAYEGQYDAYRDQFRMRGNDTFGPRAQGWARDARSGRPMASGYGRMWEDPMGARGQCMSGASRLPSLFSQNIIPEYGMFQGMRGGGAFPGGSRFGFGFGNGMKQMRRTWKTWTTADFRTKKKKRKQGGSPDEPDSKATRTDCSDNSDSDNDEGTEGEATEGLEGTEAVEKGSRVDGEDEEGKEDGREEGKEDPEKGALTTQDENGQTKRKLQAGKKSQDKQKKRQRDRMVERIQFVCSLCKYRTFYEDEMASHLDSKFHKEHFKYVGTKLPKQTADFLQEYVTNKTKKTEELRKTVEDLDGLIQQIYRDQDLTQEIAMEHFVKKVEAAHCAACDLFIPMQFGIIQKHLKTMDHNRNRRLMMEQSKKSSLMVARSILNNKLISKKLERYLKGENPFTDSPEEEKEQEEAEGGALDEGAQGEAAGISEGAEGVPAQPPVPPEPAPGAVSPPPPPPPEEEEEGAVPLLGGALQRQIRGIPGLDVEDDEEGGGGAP
# [8] = HeLa, protein PRDX4 (PEROXIREDOXIN-4)
Compound,"fold changes relative to vehicle control ([1]; protein RTN3, HeLa)","fold changes relative to vehicle control ([2]; protein AIFM1, HeLa)","fold changes relative to vehicle control ([3]; protein NQO1, HeLa)","fold changes relative to vehicle control ([4]; HeLa, protein ACADVL)","fold changes relative to vehicle control [5, 8]","fold changes relative to vehicle control ([6]; protein PSMD1, HeLa)","fold changes relative to vehicle control ([7]; HeLa, protein AKAP8L)","fold changes relative to vehicle control ([2]; captured protein AIFM1, HeLa)","fold changes relative to vehicle control ([3]; HeLa, protein NQO1)","fold changes relative to vehicle control ([4]; protein ACADVL, HeLa)","fold changes relative to vehicle control ([5]; HeLa, protein PRDX4)","fold changes relative to vehicle control ([7]; captured protein AKAP8L, HeLa)",fold changes relative to vehicle control [1],fold changes relative to vehicle control [2],fold changes relative to vehicle control [3],fold changes relative to vehicle control [4],fold changes relative to vehicle control [5],fold changes relative to vehicle control [6],fold changes relative to vehicle control [7]
"Nc1nc2c(c(=O)[nH]1)N(C=O)C(CNc1ccc(C(=O)N[C@@H](CCC(=O)O)C(=O)O)cc1)CN2 (stereo partly shown) [LEU, leucovorin]",0.97,1.01,1.12,0.98,1.09,0.88,1.01,,,,,,,,,,,,
NCCCNc1ccc(C(=O)NC(CCC(=O)O)C(=O)O)cc1 (stereo not shown) [compound 7],0.84,1.06,2.36,0.97,0.99,1.16,1.08,,,,,,,,,,,,
CCCCCCOc1cccc(Cc2cnc(N)nc2N)c1 [compound 2],1.14,,,,,1.78,,1,1.22,1.29,0.93,1.03,,,,,,,
CCCCCCOc1ccc(Cc2cnc(N)nc2N)cc1 [compound 1],1,,,,,1.3,,0.97,1.12,0.96,1.08,0.79,,,,,,,
Nc1nc2cccc(-c3ccccc3)c2n1Cc1ccc(Cl)c(Cl)c1 [compound 3],0.9,,,,,1.14,,0.92,1.13,0.91,0.99,0.92,,,,,,,
NCCOCCOCC(=O)Nc1nc2ncc(CNc3ccc(C(=O)NC(CCC(=O)O)C(=O)O)cc3)nc2c(=O)[nH]1 (stereo not shown) [compound 6],0.94,0.99,0.6,1.22,0.92,1.08,1.01,,,,,,,,,,,,
"Nc1nc2[nH]cc(CCc3ccc(C(=O)N[C@@H](CCC(=O)O)C(=O)O)cc3)c2c(=O)[nH]1 [PTX, pemetrexed]",,,,,,,,,,,,,0.85,1.01,0.92,1.03,0.96,0.99,0.95
